Measurements taken from paper PMC6751662, “Pharmacological and functional similarities of the human neuropeptide Y system in C. elegans challenges phylogenetic views on the FLP/NPR system” (Cell Communication and Signaling : CCS, 2019).
Read-outs that look alike come from different tables or passages of the source. Ends that are not written are not given here.

Experiments:
NPR-1 = molecular target: T1, NPR-1 (Caenorhabditis elegans, UniProt Q18534); assay: cAMP reporter gene assay, Gi/o (inhibition of forskolin-induced cAMP), NPR-1; assay type: cell-based, C. elegans; set-up: host or cells: HEK293; conditions: for cAMP, x-fold of forskolin (mean), NPR-1 / Gi (Gs) [x-fold of forskolin], NPR-1, mean: inhibition of cAMP production induced by 1 µM forskolin (set to 1.00), transiently transfected HEK293 cells, mean of at least three independent experiments; for cAMP, x-fold of forskolin (mean), NPR-1 / cAMP assay Gi, NPR-1: lower = higher Gi/o activity; for cAMP assay Gi, NPR-1: 4 h, transfected HEK293, CRE-luciferase, mean of >=3 independent experiments; for Emax: HEK293, read-out: Emax ± SEM [%]
T1 sequence (Q18534 1-457): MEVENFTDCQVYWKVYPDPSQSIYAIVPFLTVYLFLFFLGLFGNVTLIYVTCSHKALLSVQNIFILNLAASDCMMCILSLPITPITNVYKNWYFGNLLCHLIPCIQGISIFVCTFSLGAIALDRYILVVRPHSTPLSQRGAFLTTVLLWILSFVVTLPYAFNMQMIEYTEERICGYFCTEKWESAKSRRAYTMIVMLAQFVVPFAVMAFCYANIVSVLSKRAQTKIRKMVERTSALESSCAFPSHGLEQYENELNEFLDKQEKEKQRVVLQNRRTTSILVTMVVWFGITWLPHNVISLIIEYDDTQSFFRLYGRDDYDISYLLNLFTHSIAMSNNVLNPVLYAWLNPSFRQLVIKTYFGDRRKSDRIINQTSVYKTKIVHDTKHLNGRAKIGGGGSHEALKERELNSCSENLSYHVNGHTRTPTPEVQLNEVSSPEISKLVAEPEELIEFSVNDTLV
Method: (§1) Activation of Gs and Gi/o was assessed with a cAMP reporter gene assay. HEK293 cells grown to 70–80% confluency in 6-well plates were transiently co-transfected with vectors encoding the receptor and the cAMP reporter gene plasmid pGL4.29 [luc2P/CRE/Hygro] (Promega; 4 μg total, 1:1 ratio) using Metafectene Pro (3 μl/μg DNA; Biontex) following the manufacturer’s instructions. 16 h post transfection, the cells were seeded into white 384-well plates at a density of 20,000 cells/well. On the next day, the medium was removed and the cells were stimulated with 20 μl of peptide solution (or forskolin as positive control) in serum-free DMEM for 4 h. For measuring Gi/o activity, the peptide solutions additionally contained 1 μM forskolin to elevate cellular cAMP levels. After incubation, the luciferase substrate OneGlo in lysis buffer (Promega) was added and the luminescence was measured in a microplate reader Tecan Spark (Tecan). Data were analyzed with GraphPad Prism 5.03 and are shown as fold of basal or fold of forskolin in case of Gαi/o activity.
(§2) For in vitro activation, data is presented as mean ± SEM of at least three independent experiments conducted in technical triplicate. […] For the C. elegans NPRs, we considered the strongest response elicited by any of the peptides downstream of a particular receptor as the receptor’s maximal signal. This may or may not be the biological maximum that can be reached by the ‘true’ endogenous agonist. For the human receptors, the response to the established endogenous agonist reflected the maximal signal.

NPR-6 = assay: cAMP reporter gene assay, Gi/o (inhibition of forskolin-induced cAMP), NPR-6; assay type: cell-based, C. elegans; conditions: for cAMP, x-fold of forskolin (mean), NPR-6: 1 µM forskolin set to 1.00; for cAMP, x-fold of forskolin (mean), NPR-6 / Gi (Gs) [x-fold of forskolin], NPR-6, mean: transiently transfected HEK293 cells, mean of at least three independent experiments; for cAMP assay Gi, NPR-6: 4 h, lower = higher Gi/o activity, transfected HEK293, CRE-luciferase, mean of >=3 independent experiments; for Gi (Gs) [x-fold of forskolin], NPR-6, mean: inhibition of cAMP production induced by 1 µM forskolin (set to 1.00)
Method: as §1, §2

PrRPR = molecular target: T2, PrRPR (Homo sapiens, UniProt P49683); assay: IP accumulation assay, endogenous Gαq coupling, PrRPR; assay type: cell-based; conditions: transiently transfected HEK293 cells, mean of at least three independent experiments
T2 construct: expressed in transfected cells; host or cells: HEK293, transient
T2 sequence (P49683 1-370): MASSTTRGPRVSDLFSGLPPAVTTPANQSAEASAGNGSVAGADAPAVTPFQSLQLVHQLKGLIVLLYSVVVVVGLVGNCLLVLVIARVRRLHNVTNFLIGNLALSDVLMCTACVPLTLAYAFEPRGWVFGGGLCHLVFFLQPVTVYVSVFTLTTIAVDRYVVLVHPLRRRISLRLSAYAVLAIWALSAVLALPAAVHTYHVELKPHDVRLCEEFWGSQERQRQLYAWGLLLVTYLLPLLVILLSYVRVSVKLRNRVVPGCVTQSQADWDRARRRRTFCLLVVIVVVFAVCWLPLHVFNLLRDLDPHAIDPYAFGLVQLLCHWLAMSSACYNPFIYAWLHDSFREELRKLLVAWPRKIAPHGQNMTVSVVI
Method: For measuring IP accumulation, HEK293 cells grown to 70–80% confluency in 6-well plates were transiently co-transfected using Metafectene Pro (2.5 μl/μg DNA; Biontex) with plasmids containing receptor and/or mock (empty pcDNA3.1) (for endogenous Gq-coupling) using 4 μg total DNA in a ratio of 3:1 following the manufacturer’s instructions. For testing Gα16- and GαΔ6qi4myr-coupling, plasmids encoding the corresponding Gα protein were co-transfected instead of mock. Gα16 is naturally promiscuous and stimulates the phospholipase C (PLC) pathway leading to IP production, while the exchange of the C-terminal four amino acids of Gαq for the corresponding residues of Gαi1 in the chimeric GαΔ6qi4myr confers the ability to couple to Gi/o protein-preferring receptors but still stimulate PLC, thus specifically redirecting downstream cellular signaling. 16 h post transfection, the cells were seeded into white 384-well plates at a density of 20,000 cells/well. Media was removed 24 h later and the cells were incubated with the indicated concentration of peptides for 1 h in HBSS + 20 mM LiCl. IP accumulation was measured with the HTRF-based IP-One Gq kit (Cisbio) on a microplate reader (Tecan Spark).
as §2

NPR-4b = molecular target: T3, NPR-4b (Caenorhabditis elegans, UniProt A0A078BTK0); assay: cAMP reporter gene assay, Gi/o (inhibition of forskolin-induced cAMP), NPR-4b; assay type: cell-based, C. elegans; conditions: for cAMP, x-fold of forskolin (mean), NPR-4b: 1 µM forskolin set to 1.00; for cAMP, x-fold of forskolin (mean), NPR-4b / Gi (Gs) [x-fold of forskolin], NPR-4b, mean / Emax: transiently transfected HEK293 cells; for cAMP, x-fold of forskolin (mean), NPR-4b / Gi (Gs) [x-fold of forskolin], NPR-4b, mean: mean of at least three independent experiments; for cAMP assay Gi, NPR-4b: 4 h, lower = higher Gi/o activity, transfected HEK293, CRE-luciferase, mean of >=3 independent experiments; for Gi (Gs) [x-fold of forskolin], NPR-4b, mean: inhibition of cAMP production induced by 1 µM forskolin (set to 1.00); for Emax: NPR-4b, forskolin (1 µM) set to 1.00, lower values correspond to high Gi/o activity, mean ± SEM of at least three independent experiments, SEM
T3 sequence (A0A078BTK0 1-376): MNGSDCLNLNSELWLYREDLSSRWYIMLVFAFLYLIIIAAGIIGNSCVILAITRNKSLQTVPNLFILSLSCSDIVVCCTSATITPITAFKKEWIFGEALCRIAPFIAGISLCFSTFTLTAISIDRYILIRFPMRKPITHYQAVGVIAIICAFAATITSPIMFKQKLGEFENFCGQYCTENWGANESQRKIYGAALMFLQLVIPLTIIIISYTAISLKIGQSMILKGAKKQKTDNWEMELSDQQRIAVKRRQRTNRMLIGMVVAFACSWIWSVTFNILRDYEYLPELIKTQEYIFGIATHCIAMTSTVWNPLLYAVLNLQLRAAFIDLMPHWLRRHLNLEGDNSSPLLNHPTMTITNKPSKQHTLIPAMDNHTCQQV
Method: as §1, with “(Tecan).” for “(Tecan). Data were analyzed with GraphPad Prism 5.03 and are shown as fold of basal or fold of forskolin in case of Gαi/o activity.”
as §2

[1] = 0.1 µM peptide + 1 µM forskolin (set to 1.00)
[2] = 10 µM peptide + 1 µM forskolin (set to 1.00)

ASPSFIRF-NH2 [FLP-4-2, C. elegans FMRFamide-like peptide, C-terminally amidated, synthesized by SPPS]
cAMP, x-fold of forskolin (mean), NPR-1 (NPR-1; 0.1 µM peptide): 0.77 x-fold of forskolin
cAMP, x-fold of forskolin (mean), NPR-1 (NPR-1; 10 µM peptide): 0.76 x-fold of forskolin
cAMP, x-fold of forskolin (mean), NPR-6 (NPR-6; 0.1 µM peptide): 0.86 x-fold of forskolin
cAMP, x-fold of forskolin (mean), NPR-6 (NPR-6; 10 µM peptide): 0.72 x-fold of forskolin
IP accumulation, x-fold of basal (mean), PrRPR# (PrRPR; 0.1 µM peptide): 0.85 x-fold of basal
IP accumulation, x-fold of basal (mean), PrRPR# (PrRPR; 10 µM peptide): 0.86 x-fold of basal
cAMP, x-fold of forskolin (mean), NPR-4b (NPR-4b; 0.1 µM peptide): 0.52 x-fold of forskolin
cAMP, x-fold of forskolin (mean), NPR-4b (NPR-4b; 10 µM peptide): 0.19 x-fold of forskolin

APKPKFIRF-NH2 [FLP-5-1, C. elegans FMRFamide-like peptide, C-terminally amidated, synthesized by SPPS]
cAMP assay Gi, NPR-1 (NPR-1; [1]): 0.58 x-fold of forskolin
cAMP, x-fold of forskolin (mean), NPR-1 (NPR-1; 0.1 µM peptide): 0.54 x-fold of forskolin
cAMP assay Gi, NPR-1 (NPR-1; [2]): 0.53 x-fold of forskolin
cAMP, x-fold of forskolin (mean), NPR-1 (NPR-1; 10 µM peptide): 0.50 x-fold of forskolin
cAMP assay Gi, NPR-6 (NPR-6; [1]): 0.85 x-fold of forskolin
cAMP, x-fold of forskolin (mean), NPR-6 (NPR-6; 0.1 µM peptide): 0.84 x-fold of forskolin
cAMP assay Gi, NPR-6 (NPR-6; [2]): 1.01 x-fold of forskolin
cAMP, x-fold of forskolin (mean), NPR-6 (NPR-6; 10 µM peptide): 1.01 x-fold of forskolin
IP accumulation, x-fold of basal (mean), PrRPR# (PrRPR; 0.1 µM peptide): 1.20 x-fold of basal
IP accumulation, x-fold of basal (mean), PrRPR# (PrRPR; 10 µM peptide): 1.41 x-fold of basal
cAMP assay Gi, NPR-4b (NPR-4b; [1]): 0.75 x-fold of forskolin
cAMP, x-fold of forskolin (mean), NPR-4b (NPR-4b; 0.1 µM peptide): 0.73 x-fold of forskolin
cAMP assay Gi, NPR-4b (NPR-4b; [2]): 0.40 x-fold of forskolin
cAMP, x-fold of forskolin (mean), NPR-4b (NPR-4b; 10 µM peptide): 0.36 x-fold of forskolin

GLGPRPLAF-NH2 [[R8A]FLP-21, R8A control peptide of FLP-21, penultimate arginine exchanged for an alanine]
Gi (Gs) [x-fold of forskolin], NPR-1, mean (NPR-1; 0.1 µM peptide): 0.90 x-fold of forskolin
Gi (Gs) [x-fold of forskolin], NPR-1, mean (NPR-1; 10 µM peptide): 0.89 x-fold of forskolin
Gi (Gs) [x-fold of forskolin], NPR-6, mean (NPR-6; 0.1 µM peptide): 1.00 x-fold of forskolin
Gi (Gs) [x-fold of forskolin], NPR-6, mean (NPR-6; 10 µM peptide): 0.86 x-fold of forskolin
Gi (Gs) [x-fold of forskolin], NPR-4b, mean (NPR-4b; 0.1 µM peptide): 0.95 x-fold of forskolin
Gi (Gs) [x-fold of forskolin], NPR-4b, mean (NPR-4b; 10 µM peptide): 0.99 x-fold of forskolin

RGPSGPLAF-NH2 [[R8A]FLP-15-2]
Gi (Gs) [x-fold of forskolin], NPR-1, mean (NPR-1; 0.1 µM peptide): 0.84 x-fold of forskolin
Gi (Gs) [x-fold of forskolin], NPR-1, mean (NPR-1; 10 µM peptide): 0.85 x-fold of forskolin
Gi (Gs) [x-fold of forskolin], NPR-6, mean (NPR-6; 0.1 µM peptide): 0.92 x-fold of forskolin
Gi (Gs) [x-fold of forskolin], NPR-6, mean (NPR-6; 10 µM peptide): 0.99 x-fold of forskolin
Gi (Gs) [x-fold of forskolin], NPR-4b, mean (NPR-4b; 0.1 µM peptide): 0.93 x-fold of forskolin
Gi (Gs) [x-fold of forskolin], NPR-4b, mean (NPR-4b; 10 µM peptide): 0.97 x-fold of forskolin

TSGPLGNLAEELNGYSRKKGGFSFRF-NH2 [QRFP26, human pyroglutamylated RFamide peptide, 26 residues, reference compound]
cAMP, x-fold of forskolin (mean), NPR-1 (NPR-1; 0.1 µM peptide): 1.17 x-fold of forskolin
cAMP, x-fold of forskolin (mean), NPR-1 (NPR-1; 10 µM peptide): 0.84 x-fold of forskolin
cAMP, x-fold of forskolin (mean), NPR-6 (NPR-6; 0.1 µM peptide): 0.97 x-fold of forskolin
cAMP, x-fold of forskolin (mean), NPR-6 (NPR-6; 10 µM peptide): 0.93 x-fold of forskolin
IP accumulation, x-fold of basal (mean), PrRPR# (PrRPR; 0.1 µM peptide): 1.06 x-fold of basal
IP accumulation, x-fold of basal (mean), PrRPR# (PrRPR; 10 µM peptide): 1.91 x-fold of basal
cAMP, x-fold of forskolin (mean), NPR-4b (NPR-4b; 0.1 µM peptide): 0.89 x-fold of forskolin
cAMP, x-fold of forskolin (mean), NPR-4b (NPR-4b; 10 µM peptide): 0.34 x-fold of forskolin

RGPSGPLRF-NH2 [FLP-15-2]
Emax (NPR-1; SEM): -0.92 ± 0.1%
EC50 (NPR-1; SEM): 25.1 nM
Emax (NPR-4b): -0.65 ± 0.07%

SEVPGVLRF-NH2 [FLP-18-5]
Emax (NPR-1; SEM): -0.53 ± 0.2%
Emax (NPR-4b): -0.6 ± 0.05%

GLGPRPLRF-NH2 [FLP-21]
EC50 (NPR-1): 0.97 nM
Emax (NPR-1; SEM): -0.97 ± 0.15%
EC50 (NPR-4b): 358 nM
Emax (NPR-4b): -0.58 ± 0.07%
